Data as given in patent US9920025B2, “Antibiotic” (Koninklijke Nederlandse Akademie Van Wetenschappen, priority 2014, dated 2018).

Legend:
[1] = system: Listeria monocytogenes; test: Growth kinetics (time-kill curves); assay type: cell-based; conditions: 50, 100 and 200 μg/ml, 37° C., 24 hrs
Protocol: (§1) Also preferred is a growth kinetic assay the effect of the compound of interest is assessed in time on growth of bacterial isolates on blood-agar plates, as known by the person skilled in the art. In brief, liquid cultures are inoculated in Mueller-Hinton Broth and incubated at 37° C. o/n. The o/n cultures were used to prepare a 0.05-0.1 McFarland suspension in Mueller Hinton Broth, which are incubated at 37° C. until 0.5 McFarland ([…]). These suspensions are used to inoculate 5 ml pre-warmed Mueller-Hinton Broth with approximately 1.5×10^5 CFU/ml with the appropriate antibiotic compound of interest. Directly after addition of the bacterial suspension a 0.25 ml sample is taken. Further 0.25 ml samples are taken after 1, 3, 6 and 24 hrs, which are added to 2.25 ml physiological salt solution. This suspension is used to prepare plates for CFU determination. The lower limit of detection is 40 CFU/ml. Bacterial suspension without antibiotics is preferably checked for normal growth after 24 hrs. A compound is understood herein as having antibacterial activity if at least 3 log10 reduction of CFU in the growth kinetics assay as passed after 1, 3, 6 or preferably 24 hours.
(§2) After elucidating the structure, we studied the growth kinetics of several Gram+bacteria in the presence of 50, 100 and 200 μg/ml of the compound of formula (I), in order to determine whether the compound was bacteriostatic or bactericidal. The bacteria were cultured at 37° C. for 24 hrs (with the exception of Streptococcus Pneumoniae which was cultured until 6 hrs) in the presence of the compound and samples were taken for colony counting at 0, 1, 3, 6 and 24 hrs.
(§3) More specifically, bacterial isolates as indicated below were grown on blood-agar plates. Liquid cultures were inoculated in Mueller-Hinton Broth and incubated at 37° C. o/n. The o/n cultures were used to prepare a 0.05-0.1 McFarland suspension in Mueller Hinton Broth, which was incubated at 37° C. until 0.5 McFarland ([…]). These suspensions were used to inoculate 5 ml pre-warmed Mueller-Hinton Broth with approximately 1.5×10^5 CFU/ml with the appropriate antibiotic and antibiotic concentration. Directly after addition of the bacterial suspension a 0.25 ml sample was taken. Further 0.25 ml samples were taken after 1, 3, 6 and 24 hrs. Samples were added to 2.25 ml physiological salt solution. This suspension was used to prepare plates for CFU determination. The lower limit of detection was 40 CFU/ml. Bacterial suspension without antibiotics was checked for normal growth after 24 hrs. Efficient bactericidal activity is defined as at least 3 log10 reduction of CFU.
(§4) The bacteria tested were two strains of Enterococcus faecium (FIGS. 2A and 2B), MRSA USA300 (FIG. 2C), MSSA (FIG. 2D), Staphylococcus epidermidis (FIG. 2E), Listeria monocytogenes (FIG. 2F), Streptococcus group A (FIG. 2G), Streptococcus group B (FIG. 2H) and Streptococcus pneumoniae (FIG. 2I).

[2] = system: Streptococcus pneumoniae; test: Growth kinetics (time-kill curves); assay type: cell-based; conditions: 50, 100 and 200 μg/ml, 37° C., cultured until 6 hrs
Protocol: as §1, §2, §3, §4

[3] = system: Staphylococcus epidermidis; test: Growth kinetics (time-kill curves); assay type: cell-based; conditions: 50, 100 and 200 μg/ml, 37° C., 24 hrs
Protocol: as §1, §2, §3, §4

[4] = system: Streptococcus Group B; test: Growth kinetics (time-kill curves); assay type: cell-based; conditions: 50, 100 and 200 μg/ml, 37° C., 24 hrs, bactericidal = at least 3 log10 reduction of CFU
Protocol: as §1, §2, §3, §4

[5] = system: Streptococcus Group A; test: Growth kinetics (time-kill curves); assay type: cell-based; conditions: 50, 100 and 200 μg/ml, 37° C., 24 hrs
Protocol: as §1, §2, §3, §4

[6] = system: Klebsiella pneumonia (JS264); test: Antibiotic activity of purified fraction (broth growth inhibition, serial dilution); assay type: cell-based; conditions: ESBL CTX-M-15, Gram−, no effect at highest concentration
Protocol: (§5) Preferably the compound of the invention has antimicrobial or antibiotic activity, more preferably antibacterial activity. Antimicrobial or antibacterial activity can be assessed by a suitable assay known by the person skilled in the art, preferably by a growth inhibition assay as exemplified herein. Preferably growth inhibition is assessed by culturing bacteria are cultured in the presence or absence of the antibacterial compound o/n at 37° C. in Luria Broth (LB). The read-out of the assay is by eye, if the bacteria have visibly grown, the sample is scored as non-inhibitory. If the broth is completely clear, the sample is scored as inhibitory.
(§6) Bacteria are cultured o/n at 37° C. in Luria Broth (LB). This culture is diluted 100× in fresh LB. This fresh culture is then used to test the filtrate and extract. The filtrate was tested in serial dilutions starting at 2× and further diluted with a factor 2 until 256×. The extract was tested starting at 10× dilution and further diluted with a factor 2 until 1280×. The bacteria with filtrate or extract were incubated o/n at 37° C. The read-out of the assay is by eye, if the bacteria have visibly grown, the sample is scored as non-inhibitory. If the broth is completely clear, the sample is scored as inhibitory.
(§7) The 95 fractions collected were pooled per 6 and the pooled fractions were dried in a speed-vac o/n. The fraction residues were dissolved in 1 ml 5% DMSO and tested on E. faecium (15A623) in serial dilutions starting at 2×. […] 1 ml of each fraction was dried in a speed-vac o/n and each fraction residue was dissolved in 1 ml 5% DMSO to be tested on E. faecium. […] The fraction was then tested on 19 additional strains of bacteria (Table 3).

[7] = system: Pseudomonas aeruginosa (04A191), NCCB 100515; test: as above; assay type: cell-based; conditions: Gram−, no effect at highest concentration
Protocol: as §5, §6, §7

[8] = system: Acinetobacter calcoaceticus (15A600), NCCB 100514; test: as above; assay type: cell-based; conditions: Gram−, no effect at highest concentration
Protocol: as §5, §6, §7

[9] = system: Streptococcus group B (05A396); test: as above; assay type: cell-based; conditions: Gram+
Protocol: as §5, §6, §7

[10] = system: Escherichia coli (JS203); test: as above; assay type: cell-based; conditions: ESBL CTX-M-1, Gram−, no effect at highest concentration
Protocol: as §5, §6, §7

[11] = system: Methicillin-sensitive Staphylococcus aureus 476 (S0101), ATCC BAA-1721; test: as above; assay type: cell-based; conditions: Gram+
Protocol: as §5, §6, §7

[12] = system: Klebsiella pneumonia (JS006); test: as above; assay type: cell-based; conditions: ESBL SHV-18, Gram−, no effect at highest concentration
Protocol: as §5, §6, §7

[13] = system: Enterococcus faecium(15A623); test: as above; assay type: cell-based
Protocol: as §5, §6, §7

[14] = system: Escherichia coli (JS004); test: as above; assay type: cell-based; conditions: ESBL TEM-3, Gram−, no effect at highest concentration
Protocol: as §5, §6, §7

[15] = system: Stenotrophomonas maltophilia (20A226), NCCB 100516; test: as above; assay type: cell-based; conditions: Gram−, no effect at highest concentration
Protocol: as §5, §6, §7

[16] = system: Enterococcus faecium(16D030); test: as above; assay type: cell-based; conditions: Gram+
Protocol: as §5, §6, §7

[17] = system: Escherichia coli (CP131); test: as above; assay type: cell-based; conditions: ESBL SHV-3, Gram−, no effect at highest concentration
Protocol: as §5, §6, §7

[18] = system: Staphylococcus epidermidis (08A1071); test: as above; assay type: cell-based; conditions: Gram+
Protocol: as §5, §6, §7

[19] = system: Methicillin-resistant Staphylococcus aureus (MRSA) ST8: USA300 (S1474) FPR3757, NARSA collection NRS482; test: as above; assay type: cell-based; conditions: Gram+
Protocol: as §5, §6, §7

[20] = system: Streptococcus group A (23M092); test: as above; assay type: cell-based; conditions: Gram+
Protocol: as §5, §6, §7

[21] = system: Klebsiella pneumonia (CP14); test: as above; assay type: cell-based; conditions: ESBL TEM-18, Gram−, no effect at highest concentration
Protocol: as §5, §6, §7

[22] = system: Streptococcus pneumoniae (14B186); test: as above; assay type: cell-based; conditions: Gram+
Protocol: as §5, §6, §7

[23] = system: Klebsiella pneumoniae (MR44); test: as above; assay type: cell-based; conditions: Gram−, no effect at highest concentration
Protocol: as §5, §6, §7

[24] = system: Listeria monocytogenes (41-4a); test: as above; assay type: cell-based; conditions: Gram+
Protocol: as §5, §6, §7

[25] = system: E. faecium (16D030); test: Growth kinetics (time-kill curves); assay type: cell-based, Enterococcus faecium; conditions: 50, 100 and 200 μg/ml, 37° C., 24 hrs
Protocol: as §1, with “hours. […]” for “hours.”

[26] = system: E. faecium (15A623); test: Growth kinetics (time-kill curves); assay type: cell-based, Enterococcus faecium; conditions: 50, 100 and 200 μg/ml, 37° C., 24 hrs
Protocol: as §1, with “hours. […]” for “hours.”

[27] = system: MSSA; test: Growth kinetics (time-kill curves); assay type: cell-based, Staphylococcus aureus; conditions: 50, 100 and 200 μg/ml, 37° C., 24 hrs
Protocol: as §1, with “hours. […]” for “hours.”

[28] = system: MRSA USA300; test: Growth kinetics (time-kill curves); assay type: cell-based, Staphylococcus aureus; conditions: 50, 100 and 200 μg/ml, 37° C., 24 hrs
Protocol: as §1, with “hours. […]” for “hours.”

CC1CCC(=O)/C=C/C(=O)O1 (stereo not drawn) [compound of formula (I), (E)-8-methyl-7,8-dihydro-2H-oxocine-2,5(6H)-dione]
bacteriostatic or bactericidal (time-kill curves) [1]: bactericidal | bacteriostatic or bactericidal (time-kill curves) [2]: bactericidal | bacteriostatic or bactericidal (time-kill curves) [3]: bactericidal | bacteriostatic or bactericidal (time-kill curves) [4]: bacteriostatic | bacteriostatic or bactericidal (time-kill curves) [5]: bactericidal | Minimal concentration for antibacterial activity [6]: No effect at 1.5 g/l | Minimal concentration for antibacterial activity [7]: No effect at 1.5 g/l | Minimal concentration for antibacterial activity [8]: No effect at 1.5 g/l | Minimal concentration for antibacterial activity [9]: 75.0 mg/1 | Minimal concentration for antibacterial activity [10]: No effect at 1.5 g/l | Minimal concentration for antibacterial activity [11]: 4.69 mg/L | Minimal concentration for antibacterial activity [12]: No effect at 1.5 g/l | inhibition of bacterial growth by HPLC fractions ([13]; E. faecium (15A623), residue in 1 ml 5% DMSO, serial dilutions starting at 2×): inhibited bacterial growth | Minimal concentration for antibacterial activity ([13]; Enterococcus faecium(15A623), Gram+): 37.5 mg/1 | activity against E. faecium (15A623) ([13]; compound of formula (I) and hydrogenated derivative at similar concentrations): active | Minimal concentration for antibacterial activity [14]: No effect at 1.5 g/l | Minimal concentration for antibacterial activity [15]: No effect at 1.5 g/l | Minimal concentration for antibacterial activity [16]: 75.0 mg/1 | Minimal concentration for antibacterial activity [17]: No effect at 1.5 g/l | Minimal concentration for antibacterial activity [18]: 18.8 mg/L | Minimal concentration for antibacterial activity [19]: 18.8 mg/L | Minimal concentration for antibacterial activity [20]: 75.0 mg/1 | Minimal concentration for antibacterial activity [21]: No effect at 1.5 g/l | Minimal concentration for antibacterial activity [22]: 75.0 mg/1 | Minimal concentration for antibacterial activity [23]: No effect at 1.5 g/l | Minimal concentration for antibacterial activity [24]: 75.0 mg/1 | bacteriostatic or bactericidal (time-kill curves) [25]: bacteriostatic | bacteriostatic or bactericidal (time-kill curves) [26]: bacteriostatic | bacteriostatic or bactericidal (time-kill curves) [27]: bactericidal | bacteriostatic or bactericidal (time-kill curves) [28]: bactericidal
